From ChEMBL document CHEMBL1629665, “Contribution of vraSR and graSR point mutations to vancomycin resistance in vancomycin-intermediate Staphylococcus aureus” (2009)
Values after ≈ are worked out from the molar mass of the structure shown. Where a SMILES comes first, the peptide text is derived from it. Bridges are numbered along the chain shown (N, C = ends). [ ]: non-standard residue; d: D form. The star is where a group is joined. Ileψ(thiazoline)Cys = CC[C@H](C)[C@H](N)C1=N[C@H](C(=O)*)CS1; dOrn = NCCC[C@@H](N)C(=O)O

What was measured:
Format in all cases: functional
Staphylococcus aureus [1] = experiment: Antibacterial activity against vancomycin-susceptible Staphylococcus aureus Mu50omega after 24 hrs by Etest
Staphylococcus aureus [2] = experiment: Antibacterial activity against vancomycin-susceptible Staphylococcus aureus Mu50omega expressing vraSm mutant gene after 48 hrs by Etest
Staphylococcus aureus [3] = experiment: Antibacterial activity against vancomycin-susceptible Staphylococcus aureus Mu50omega expressing vraSm, graRm mutant gene after 48 hrs by Etest
Staphylococcus aureus [4] = experiment: Antibacterial activity against vancomycin-intermediate Staphylococcus aureus Mu50 after 48 hrs by Etest; settings: Mu50, 48 h
Staphylococcus aureus [5] = experiment: Antibacterial activity against vancomycin-susceptible Staphylococcus aureus Mu50omega expressing vraSn mutant gene after 24 hrs by Etest
Staphylococcus aureus [6] = experiment: Antibacterial activity against vancomycin-susceptible Staphylococcus aureus Mu50omega expressing vraSm, graRm mutant gene after 24 hrs by Etest
Staphylococcus aureus [7] = experiment: Antibacterial activity against vancomycin-susceptible Staphylococcus aureus Mu50omega after 48 hrs by Etest
Staphylococcus aureus [8] = experiment: Antibacterial activity against vancomycin-intermediate Staphylococcus aureus Mu50 after 24 hrs by Etest; settings: Mu50, 24 h
Staphylococcus aureus [9] = experiment: Antibacterial activity against vancomycin-susceptible Staphylococcus aureus Mu50omega expressing vraSn mutant gene after 48 hrs by Etest
Staphylococcus aureus [10] = experiment: Antibacterial activity against vancomycin-susceptible Staphylococcus aureus Mu50omega expressing vraSm mutant gene after 24 hrs by Etest

Row | Compound | MIC (Staphylococcus aureus [1]) [µg/mL] | MIC (Staphylococcus aureus [2]) [µg/mL] | MIC (Staphylococcus aureus [3]) [µg/mL] | MIC (Staphylococcus aureus [4]) [µg/mL] | MIC (Staphylococcus aureus [5]) [µg/mL] | MIC (Staphylococcus aureus [6]) [µg/mL] | MIC (Staphylococcus aureus [7]) [µg/mL] | MIC (Staphylococcus aureus [8]) [µg/mL] | MIC (Staphylococcus aureus [9]) [µg/mL] | MIC (Staphylococcus aureus [10]) [µg/mL]
1 | C[C@@H](O)[C@H]1C(=O)N2C(C(=O)O)=C(SCCNC=N)C[C@H]12 [IMIPENEM ANHYDROUS] | 0.38 (≈ 1.27 µM) | > 32 | > 32 | > 32 | > 32 | > 32 | 0.38 (≈ 1.27 µM) | > 32 | > 32 | > 32
2 | C[C@H]1COc2c(N3CCN(C)CC3)c(F)cc3c(=O)c(C(=O)O)cn1c23.C[C@H]1COc2c(N3CCN(C)CC3)c(F)cc3c(=O)c(C(=O)O)cn1c23.O [LEVOFLOXACIN] | > 32 | – | – | > 32 | – | – | > 32 | > 32 | – | –
3 | CC[C@H]1OC(=O)[C@H](C)[C@@H](O[C@H]2C[C@@](C)(OC)[C@@H](O)[C@H](C)O2)[C@H](C)[C@@H](O[C@@H]2O[C@H](C)C[C@H](N(C)C)[C@H]2O)[C@](C)(O)C[C@@H](C)C(=O)[C@H](C)[C@@H](O)[C@]1(C)O [ERYTHROMYCIN] | > 256 | – | – | > 250 | – | – | > 256 | > 250 | – | –
4 | CO/N=C(\C(=O)N[C@@H]1C(=O)N2C(C(=O)O)=C(CSc3nc(=O)c(O)nn3C)CS[C@H]12)c1csc(N)n1 [CEFTRIAXONE] | 3 (≈ 5.41 µM) | – | – | > 256 | > 0.256 | > 256 | > 256 | > 256 | – | > 256
5 | CC(=O)OCC1=C(C(=O)O)N2C(=O)[C@@H](NC(=O)Cc3cccs3)[C@H]2SC1 [CEPHALOTHIN] | 0.25 (≈ 0.631 µM) | > 256 | > 256 | 128 (≈ 323 µM) | > 256 | > 256 | 0.38 (≈ 0.959 µM) | 128 (≈ 323 µM) | > 256 | > 256
6 | Cc1onc(-c2ccccc2)c1C(=O)N[C@@H]1C(=O)N2[C@@H]1SC(C)(C)[C@@H]2C(=O)O [OXACILLIN] | 8 (≈ 19.9 µM) | > 256 | > 256 | > 256 | > 256 | > 256 | 8 (≈ 19.9 µM) | > 256 | > 256 | > 256
7 | CC[C@H](C)[C@H](N)C1=N[C@H](C(=O)N[C@@H](CC(C)C)C(=O)N[C@H](CCC(=O)O)C(=O)N[C@H](C(=O)N[C@H]2CCCCNC(=O)[C@H](CC(N)=O)NC(=O)[C@@H](CC(=O)O)NC(=O)[C@H](Cc3cnc[nH]3)NC(=O)[C@@H](Cc3ccccc3)NC(=O)[C@H]([C@@H](C)CC)NC(=O)[C@@H](CCCN)NC2=O)[C@@H](C)CC)CS1 [BACITRACIN] ({Ileψ(thiazoline)Cys}-L[dE]IK[dOrn]I[dF]H[dD]N; lactam 4-C) | 12 (≈ 8.43 µM) | > 256 | > 256 | > 256 | 128 (≈ 90 µM) | 256 (≈ 180 µM) | 24 (≈ 16.9 µM) | > 256 | 256 (≈ 180 µM) | 256 (≈ 180 µM)
8 | CO/N=C(\C(=O)N[C@@H]1C(=O)N2C(C(=O)O)=CCS[C@H]12)c1csc(N)n1 [CEFTIZOXIME] | 0.38 (≈ 0.991 µM) | > 256 | > 256 | > 256 | > 256 | > 256 | 0.5 (≈ 1.3 µM) | > 256 | > 256 | > 256
9 | CC[C@H]1OC(=O)[C@H](C)[C@@H](O[C@H]2C[C@@](C)(OC)[C@@H](O)[C@H](C)O2)[C@H](C)[C@@H](O[C@@H]2O[C@H](C)C[C@H](N(C)C)[C@H]2O)[C@](C)(O)C[C@@H](C)CN(C)[C@H](C)[C@@H](O)[C@]1(C)O [AZITHROMYCIN] | > 256 | – | – | > 256 | – | – | > 256 | > 256 | – | –
10 | CN(C)c1ccc(O)c2c1C[C@H]1C[C@H]3[C@H](N(C)C)C(O)=C(C(N)=O)C(=O)[C@@]3(O)C(O)=C1C2=O [MINOCYCLINE] | 10 (≈ 21.9 µM) | 24 (≈ 52.5 µM) | 24 (≈ 52.5 µM) | 24 (≈ 52.5 µM) | 8 (≈ 17.5 µM) | 8 (≈ 17.5 µM) | 24 (≈ 52.5 µM) | 12 (≈ 26.2 µM) | 24 (≈ 52.5 µM) | 8 (≈ 17.5 µM)
11 | C[C@@H]1CN(c2c(F)c(N)c3c(=O)c(C(=O)O)cn(C4CC4)c3c2F)C[C@H](C)N1 [SPARFLOXACIN] | > 32 | – | – | > 32 | – | – | > 32 | > 32 | – | –
12 | CN[C@H](CC(C)C)C(=O)N[C@H]1C(=O)N[C@@H](CC(N)=O)C(=O)N[C@H]2C(=O)N[C@H]3C(=O)N[C@H](C(=O)N[C@H](C(=O)O)c4cc(O)cc(O)c4-c4cc3ccc4O)[C@H](O)c3ccc(c(Cl)c3)Oc3cc2cc(c3O[C@@H]2O[C@H](CO)[C@@H](O)[C@H](O)[C@H]2O[C@H]2C[C@](C)(N)[C@H](O)[C@H](C)O2)Oc2ccc(cc2Cl)[C@H]1O [VANCOMYCIN] | 0.5 (≈ 0.345 µM) | 5 (≈ 3.45 µM) | 7 (≈ 4.83 µM) | 7 (≈ 4.83 µM) | 3.5 (≈ 2.42 µM) | 6 (≈ 4.14 µM) | 1 (≈ 0.69 µM) | 6 (≈ 4.14 µM) | 4 (≈ 2.76 µM) | 4.5 (≈ 3.11 µM)
13 | CO[C@@]1(NC(=O)Cc2cccs2)C(=O)N2C(C(=O)O)=C(COC(N)=O)CS[C@@H]21 [CEFOXITIN] | 32 (≈ 74.9 µM) | > 256 | > 256 | > 256 | > 256 | > 256 | 32 (≈ 74.9 µM) | > 256 | > 256 | > 256
14 | CC(=O)NC[C@H]1CN(c2ccc(N3CCOCC3)c(F)c2)C(=O)O1 [LINEZOLID] | 0.5 (≈ 1.48 µM) | 0.5 (≈ 1.48 µM) | 0.5 (≈ 1.48 µM) | 0.5 (≈ 1.48 µM) | 0.5 (≈ 1.48 µM) | 0.5 (≈ 1.48 µM) | 0.5 (≈ 1.48 µM) | 0.5 (≈ 1.48 µM) | 0.5 (≈ 1.48 µM) | 0.5 (≈ 1.48 µM)
15 | CCCCCCCCCC(=O)N[C@@H](Cc1c[nH]c2ccccc12)C(=O)N[C@H](CC(N)=O)C(=O)N[C@@H](CC(=O)O)C(=O)N[C@@H]1C(=O)NCC(=O)N[C@@H](CCCN)C(=O)N[C@@H](CC(=O)O)C(=O)N[C@H](C)C(=O)N[C@@H](CC(=O)O)C(=O)NCC(=O)N[C@H](CO)C(=O)N[C@@H]([C@H](C)CC(=O)O)C(=O)N[C@@H](CC(=O)c2ccccc2N)C(=O)O[C@@H]1C | 1 (≈ 0.617 µM) | 1.5 (≈ 0.926 µM) | 2 (≈ 1.23 µM) | 2 (≈ 1.23 µM) | 1.5 (≈ 0.926 µM) | 2 (≈ 1.23 µM) | 1 (≈ 0.617 µM) | 2 (≈ 1.23 µM) | 1.5 (≈ 0.926 µM) | 1.5 (≈ 0.926 µM)
16 | CC[C@H]1OC(=O)[C@H](C)[C@@H](O[C@H]2C[C@@](C)(OC)[C@@H](O)[C@H](C)O2)[C@H](C)[C@@H](O[C@@H]2O[C@H](C)C[C@H](N(C)C)[C@H]2O)[C@](C)(OC)C[C@@H](C)C(=O)[C@H](C)[C@@H](O)[C@]1(C)O [CLARITHROMYCIN] | > 256 | – | – | > 256 | – | – | > 256 | > 256 | – | –
17 | COc1cccc(OC)c1C(=O)N[C@@H]1C(=O)N2[C@@H]1SC(C)(C)[C@@H]2C(=O)O [METHICILLIN] | > 256 | – | – | > 256 | – | – | > 256 | > 256 | – | –
18 | CCC[C@@H]1C[C@@H](C(=O)N[C@@H]([C@H]2O[C@H](SC)[C@H](O)[C@@H](O)[C@H]2O)[C@H](C)Cl)N(C)C1 [CLINDAMYCIN] | > 256 | – | – | > 256 | – | – | > 256 | > 256 | – | –
19 | C[C@H]1c2cccc(O)c2C(=O)C2=C(O)[C@]3(O)C(=O)C(C(N)=O)=C(O)[C@@H](N(C)C)[C@@H]3[C@@H](O)[C@@H]21.O [DOXYCYCLINE] | 8 | – | – | > 256 | 8 | 8 | > 256 | 8 | – | 8
20 | O=C(O)c1cn(C2CC2)c2cc(N3CCNCC3)c(F)cc2c1=O [CIPROFLOXACIN] | > 32 | – | – | > 32 | – | – | > 32 | > 32 | – | –
